Test results as given in patent US11858905B1, “Cathepsin L inhibitors” (priority 2023, dated 2024).
Read-outs that look alike come from different tables or passages of the source.

Assays:
human CatL = human CatL (Homo sapiens (Human), UniProt P07711); test: Human Cathepsin L (CatL) enzymatic assay; format: biochemical
Protocol: Human Cathepsin L (CatL) Enzymatic Assay
60 μL of the compounds were added to 384-well dilution plate. The compound solution was diluted for 1:3 in succession in DMSO for each column for 10 pts. 0.05 μL diluted compound solution was added in each row to 384 assay plates (Corning 4514) using Echo (LABCYTE 655), each column containing 2 replicates. 5 μL working solution of human CatL enzyme (Abcam #ab81780) was added to 384-well assay plate, centrifuge 1000 rpm for 1 min. The mixture was incubated at […] for 15 min, then add 5 μL working solution of CatL substrate (Genscript #C7360HB140_5) to initiate the reaction (CatL: 0.05 nM, Substrate: 500 nM). Incubate at […] for 30 min. Reading Ex370 nm and Em460 nm fluorescence signals with BMG CLARIO Star Plusaucu. Percent inhibition for each compound was calculated and IC50 (half maximal inhibitory concentration) was fitted from non-linear regression by XLfit 5.5.0.

SARS-CoV-2 PsVs = test: microbe, parasite or virus in culture; format: cell-based; conditions: for activity at 0.5 µM / activity at 5 µM: Severe acute respiratory syndrome coronavirus 2, Vero C1008, 24 h; for activity at 0.5 µM: read-out: % Infection rate at 500 nM; for activity at 5 µM: read-out: % Infection rate at 5 uM
[1] = CatL 0.05 nM, substrate 500 nM, pH 5.5, read-out: Enzymatic inhibition IC50
[2] = summary of Table 2, read-out: IC50 for inhibiting CatL

Chain of human CatL (P07711 whole entry, looked up): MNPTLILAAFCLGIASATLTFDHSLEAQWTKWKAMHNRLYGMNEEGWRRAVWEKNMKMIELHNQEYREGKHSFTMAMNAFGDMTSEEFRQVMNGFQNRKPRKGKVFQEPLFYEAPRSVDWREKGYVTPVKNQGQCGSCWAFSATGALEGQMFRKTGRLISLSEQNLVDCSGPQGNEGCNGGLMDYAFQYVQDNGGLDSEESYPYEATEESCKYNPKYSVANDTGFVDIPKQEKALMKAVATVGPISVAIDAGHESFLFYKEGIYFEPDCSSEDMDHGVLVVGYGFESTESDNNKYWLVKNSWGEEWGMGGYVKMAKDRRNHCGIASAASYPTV

Compound | IC50 (human CatL; [1]) [nM] | activity at 0.5 µM (SARS-CoV-2 PsVs) [%] | activity at 5 µM (SARS-CoV-2 PsVs) [%] | IC50 (human CatL; [2]) [nM] | protection of cells from pseudovirus infection at 500 nM (SARS-CoV-2 PsVs; 500 nM)
CN1CCN(c2ccc3nc(C[C@H](NC(=O)c4cc(C5CC5)nn4C4CC4)C(=O)NCC#N)oc3c2)CC1 [Compound 25, (S)—N-(1-((cyanomethyl)amino)-3-(6-(4-methylpiperazin-1-yl)benzo[d]oxazol-2-yl)-1-oxopropan-2-yl)-1,3-dicyclopropyl-1 H-pyrazole-5-carboxamide] | 36.7 | 54 | 15 | – | –
CN1CCN(c2ccc3nc(C[C@H](NC(=O)c4cc(C(C)(C)C)nn4C4CC4)C(=O)NC4(C#N)CC4)oc3c2)CC1 [Compound 26, (S)-3-(tert-butyl)-N-(1-((1-cyanocyclopropyl)amino)-3-(6-(4-methylpiperazin-1-yl)benzo[d]oxazol-2-yl)-1-oxopropan-2-yl)-1-cyclopropyl-1 H-pyrazole-5-carboxamide] | 1.4 | 25 | 2.2 | < 10 | –
CN1CC=C(c2ccc3nc(C[C@H](NC(=O)c4cccc(Cl)c4)C(=O)NC4(C#N)CC4)oc3c2)CC1 [Compound 27, (S)-3-chloro-N-(1-((1-cyanocyclopropyl)amino)-3-(6-(1-methyl-1,2,3,6-tetrahydropyridin-4-yl)benzo[d]oxazol-2-yl)-1-oxopropan-2-yl)benzamide] | 8.5 | 40 | 13 | < 10 | –
N#CC1(NC(=O)[C@H](Cc2nc3ccc(C4=CCN(CC(F)F)CC4)cc3o2)NC(=O)c2cccc(Cl)c2)CC1 [Compound 28, (S)-3-chloro-N-(1-((1-cyanocyclopropyl)amino)-3-(6-(1-(2,2-difluoroethyl)-1,2,3,6-tetrahydropyridin-4-yl)benzo[d]oxazol-2-yl)-1-oxopropan-2-yl)benzamide] | 12.3 | 70 | 38 | – | –
CC(C)(C)c1cc(C(=O)N[C@@H](Cc2nc3ccc(C4=CCN(CC(F)F)CC4)cc3o2)C(=O)NC2(C#N)CC2)n(C2CC2)n1 [Compound 29, (S)-3-(tert-butyl)-N-(1-((1-cyanocyclopropyl)amino)-3-(6-(1-(2,2-difluoroethyl)-1,2,3,6-tetrahydropyridin-4-yl)benzo[d]oxazol-2-yl)-1-oxopropan-2-yl)-1-cyclopropyl-1 H-pyrazole-5-carboxamide] | 1.3 | 7.3 | 8.8 | < 10 | nearly full protection
CN1CCN(c2ccc3nc(C[C@H](NC(=O)c4cccc(Cl)c4)C(=O)NC4(C#N)CC4)oc3c2)C(=O)C1 [Compound 30, (S)-3-chloro-N-(1-((1-cyanocyclopropyl)amino)-3-(6-(4-methyl-2-oxopiperazin-1-yl)benzo[d]oxazol-2-yl)-1-oxopropan-2-yl)benzamide] | 124 | 99 | 101 | – | –
N#CC1(NC(=O)[C@H](Cc2nc3ccccc3s2)NC(=O)c2cccc(Cl)c2)CC1 [Compound 31, (S)—N-(3-(benzo[d]thiazol-2-yl)-1-((1-cyanocyclopropyl)amino)-1-oxopropan-2-yl)-3-chlorobenzamide] | 11.7 | 67 | 10 | < 50 | –
Cn1c(C[C@H](NC(=O)c2cccc(Cl)c2)C(=O)NC2(C#N)CC2)nc2ccccc21 [Compound 32, (S)-3-chloro-N-(1-((1-cyanocyclopropyl)amino)-3-(1-methyl-1 H-benzo[d]imidazol-2-yl)-1-oxopropan-2-yl)benzamide] | > 1000 | 101 | 95 | – | –
CC(C)(C)c1cc(C(=O)N[C@@H](Cc2nc3ccc(Br)cc3o2)C(=O)NC2(C#N)CC2)n(C2CC2)n1 [Compound 33, (S)—N-(3-(6-bromobenzo[d]oxazol-2-yl)-1-((1-cyanocyclopropyl)amino)-1-oxopropan-2-yl)-3-(tert-butyl)-1-cyclopropyl-1H-pyrazole-5-carboxamide] | 2.9 | 39 | 5.9 | – | –
CC(C)(C)c1cc(C(=O)N[C@@H](Cc2nc3ccc(-c4ccc(N)nc4)cc3o2)C(=O)NC2(C#N)CC2)n(C2CC2)n1 [Compound 34, (S)—N-(3-(6-(6-aminopyridin-3-yl)benzo[d]oxazol-2-yl)-1-((1-cyanocyclopropyl)amino)-1-oxopropan-2-yl)-3-(tert-butyl)-1-cyclopropyl-1H-pyrazole-5-carboxamide] | 0.6 | 41 | 0.9 | – | –
Cc1cc(-c2ccc3nc(C[C@H](NC(=O)c4cc(C5(C)CC5)nn4C4CC4)C(=O)NCC#N)oc3c2)ccn1 [Compound 35, (S)—N-(1-((cyanomethyl)amino)-3-(6-(2-methylpyridin-4-yl)benzo[d]oxazol-2-yl)-1-oxopropan-2-yl)-1-cyclopropyl-3-(1-methylcyclopropyl)-1H-pyrazole-5-carboxamide] | 1.1 | 40 | 3.1 | – | –
Cc1cc(-c2ccc3nc(C[C@H](NS(=O)(=O)c4cccc(Br)c4)C(=O)NCC#N)oc3c2)ccn1 [Compound 36, (S)-2-((3-bromophenyl)sulfonamido)-N-(cyanomethyl)-3-(6-(2-methylpyridin-4-yl)benzo[d]oxazol-2-yl)propanamide] | 79.3 | 110 | 125 | – | –
Cc1cc(-c2ccc3nc(C[C@H](NS(=O)(=O)c4cccc(Cl)c4)C(=O)NCC#N)oc3c2)ccn1 [Compound 37, (S)-2-((3-chlorophenyl)sulfonamido)-N-(cyanomethyl)-3-(6-(2-methylpyridin-4-yl)benzo[d]oxazol-2-yl)propanamide] | 125 | 96 | 104 | – | –
Cc1cc(-c2ccc3nc(C[C@H](NC(=O)c4cc(C5(C)CC5)nn4C4CC4)C(=O)NC4(C#N)CC4)oc3c2)ccn1 [Compound 38, (S)—N-(1-((1-cyanocyclopropyl)amino)-3-(6-(2-methylpyridin-4-yl)benzo[d]oxazol-2-yl)-1-oxopropan-2-yl)-1-cyclopropyl-3-(1-methylcyclopropyl)-1H-pyrazole-5-carboxamide] | 1.7 | 34 | 1 | – | –
CN(C)c1ccc(-c2ccc3nc(C[C@H](NC(=O)c4cc(C5(C)CC5)nn4C4CC4)C(=O)NC4(C#N)CC4)oc3c2)cn1 [Compound 39, (2S)—N-(1-cyanocyclopropyl)-2-{[2-cyclopropyl-5-(1-methylcyclopropyl)pyrazol-3-yl]formamido}-3-{6-[6-(dimethylamino)pyridin-3-yl]-1,3-benzoxazol-2-yl}propanamide] | 1.6 | 32 | 4 | – | –
CC1(c2cc(C(=O)N[C@@H](Cc3nc4ccc(C5=CCN(CC(F)F)CC5)cc4o3)C(=O)NC3(C#N)CC3)n(C3CC3)n2)CC1 [Compound 40, (S)—N-(1-((1-cyanocyclopropyl)amino)-3-(6-(1-(2,2-difluoroethyl)-1,2,3,6-tetrahydropyridin-4-yl)benzo[d]oxazol-2-yl)-1-oxopropan-2-yl)-1-cyclopropyl-3-(1-methylcyclopropyl)-1H-pyrazole-5-carboxamide] | 1.5 | 57 | 12 | – | –
CC(=O)Nc1ccc(-c2ccc3nc(C[C@H](NC(=O)c4cc(C5(C)CC5)nn4C4CC4)C(=O)NC4(C#N)CC4)oc3c2)cn1 [Compound 41, (2S)—N-(1-cyanocyclopropyl)-2-{[2-cyclopropyl-5-(1-methylcyclopropyl)pyrazol-3-yl]formamido}-3-[6-(6-acetamidopyridin-3-yl)-1,3-benzoxazol-2-yl]propanamide] | 5.3 | 90 | 57.7 | – | –
Cc1ccc(-c2ccc3nc(C[C@H](NC(=O)c4cc(C5(C)CC5)nn4C4CC4)C(=O)NC4(C#N)CC4)oc3c2)cn1 [Compound 42, (S)—N-(1-((1-cyanocyclopropyl)amino)-3-(6-(6-methylpyridin-3-yl)benzo[d]oxazol-2-yl)-1-oxopropan-2-yl)-1-cyclopropyl-3-(1-methylcyclopropyl)-1H-pyrazole-5-carboxamide] | 4.5 | 34 | 5.6 | – | –
CCNc1ccc(-c2ccc3nc(C[C@H](NC(=O)c4cc(C5(C)CC5)nn4C4CC4)C(=O)NC4(C#N)CC4)oc3c2)cn1 [Compound 43, (S)—N-(1-((1-cyanocyclopropyl)amino)-3-(6-(6-(ethylamino)pyridin-3-yl)benzo[d]oxazol-2-yl)-1-oxopropan-2-yl)-1-cyclopropyl-3-(1-methylcyclopropyl)-1H-pyrazole-5-carboxamide] | 0.8 | 18 | 0.8 | – | –
Cc1cccc(-c2ccc3nc(C[C@H](NC(=O)c4cc(C5(C)CC5)nn4C4CC4)C(=O)NC4(C#N)CC4)oc3c2)n1 [Compound 44, (S)—N-(1-((1-cyanocyclopropyl)amino)-3-(6-(6-methylpyridin-2-yl)benzo[d]oxazol-2-yl)-1-oxopropan-2-yl)-1-cyclopropyl-3-(1-methylcyclopropyl)-1H-pyrazole-5-carboxamide] | 16.5 | 82 | 55.5 | < 50 | –
